# Reference: PMC6480602, “Design, Synthesis, and Evaluation of Monoamine Oxidase A Inhibitors–Indocyanine Dyes Conjugates as Targeted Antitumor Agents” (Molecules, 2019)
# Entries after “also recorded” stand apart in the source; their conditions may differ. Where a name gives a salt, the structure may show the parent alone. Read-outs that look alike come from different tables or passages of the source.
# Tests used:
# PC-3 cells = assay: MTT cytotoxicity assay against PC-3 cells; format: cell-based, human; conditions: for IC50: 96 h exposure, read-out: IC50 (μM), anti-proliferative activity against PC-3 cells
# Method: The antitumor activities of G1–G13 were evaluated by MTT (3-(4,5-dimethylthiazol-2-yl)-2,5-diphenyltetrazolium bromide) assay using a human PC-3 cell line.
# The in vitro cytotoxicity activity of G1–G13 were measured by the colorimetric MTT assay. Briefly, PC-3 cells were incubated in 96-well plates at a density of 3 × 10^3 cells/well for 24 h. Then, the cells were exposed to various concentrations of tested compounds, INH and DOX, respectively for 96 h. After incubation, 10 μL of MTT (5 mg/mL) solution was added and the plates were incubated for 4 h at 37 °C. Next, the medium was replaced with 200 μL of DMSO to dissolve the formed formazan crystals. The absorbance was measured at 570 nm on a microplate reader (Synergy-HT, BioTek Instruments, Winooski, VT, USA).
# [1] = target: T1, Monoamine oxidase A (MAOA) (Homo sapiens, UniProt P21397); assay: MAOA inhibition activity assay in LNCaP cells (Cell MAOA Assay Kit); format: cell-based
# T1 construct: the prostate cancer cell line LNCaP expressed a relatively high level of MAOA; endogenous in cells; host or cells: LNCaP cells (Cell Bank of the Chinese Academy of Sciences, Shanghai)
# T1 sequence (P21397 1-527): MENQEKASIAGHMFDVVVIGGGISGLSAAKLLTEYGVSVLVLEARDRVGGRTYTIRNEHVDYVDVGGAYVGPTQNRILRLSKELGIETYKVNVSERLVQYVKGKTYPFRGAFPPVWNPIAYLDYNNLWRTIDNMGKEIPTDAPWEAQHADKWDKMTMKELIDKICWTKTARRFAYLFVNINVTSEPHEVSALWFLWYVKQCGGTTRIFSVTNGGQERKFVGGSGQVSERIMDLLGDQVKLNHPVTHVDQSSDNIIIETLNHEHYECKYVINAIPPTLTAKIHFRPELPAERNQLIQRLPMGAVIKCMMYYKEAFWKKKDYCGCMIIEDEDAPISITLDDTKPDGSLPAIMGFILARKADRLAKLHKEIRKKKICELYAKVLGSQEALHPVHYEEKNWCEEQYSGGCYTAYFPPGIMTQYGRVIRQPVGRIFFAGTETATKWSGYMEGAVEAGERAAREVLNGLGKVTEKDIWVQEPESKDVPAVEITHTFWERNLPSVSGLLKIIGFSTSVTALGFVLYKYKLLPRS
# Method: Because the prostate cancer cell line LNCaP expressed a relatively high level of MAOA [17, 40], we tested the inhibitory effect of compounds G10, G11, and G12 on MAOA using LNCaP cells (Table 2).
# In a 10-mm dish, 6 × 10^5 LNCaP cells were plated in medium supplemented with 10% FBS. […] The reaction products were extracted and MAOA activities were measured as described in the introduction for the Cell MAOA Assay Kit (Shanghai Chengong Biotechnology, CHN, Lot No: 1-201838-10). The MAOA activity was assessed based on the substrate p-tyramine level after treatment with MAOB inhibitor pargyline.
# [2] = LNCaP cells, 48 h treatment, substrate p-tyramine, with MAOB inhibitor pargyline, read-out: IC50 (nM), MAOA inhibitory activity in LNCaP cells
Compound,IC50 (PC-3 cells; Homo sapiens),also measured
"2-(7-(5-methoxyl-1-(5-carboxypentyl)-1,3-dihydro-5-ethyl-3-methyl-2H-indol-2-ylidene)-1,3,5-heptatrien-1-yl)-5-methoxyl-1-(6-(2-isonicotinoylhydrazinyl)-6-oxohexyl)-5-ethyl-3-methyl-3H-indol-1-ium bromide [Compound G6]",–,IC50 (PC-3 cells): 37.1 µM
"COc1ccc2c(c1)C(C)(C)C(=CC=C1CCCC(C=CC3=[N+](CCCCCC(=O)NNC(=O)c4ccncc4)c4ccc(OC)cc4C3(C)C)=C1Cl)N2CCCCCC(=O)O [Compound G1, 2-(2-(3-(2-(5-Methoxyl-1-(5-carboxypentyl)-3,3-dimethyl-indol-2-ylidene)ethylidene)-2-chloro-1-cyclohexen-1-yl)vinyl)-5-methoxyl-1-(6-(2-isonicotinoylhydrazinyl)-6-oxohexyl)-3,3-dimethyl-3H-indol-1-ium bromide]",18.4 µM,–
"CC1(C)C(=CC=C2CCCC(C=CC3=[N+](CCCCCC(=O)NNC(=O)c4ccncc4)c4ccc(Br)cc4C3(C)C)=C2Cl)N(CCCCCC(=O)O)c2ccc(Br)cc21 [Compound G2, 2-(2-(3-(2-(5-Bromo-1-(5-carboxypentyl)-3,3-dimethyl-indol-2-ylidene)ethylidene)-2-chloro-1-cyclohexen-1-yl)vinyl)-5-bromo-1-(6-(2-isonicotinoylhydrazinyl)-6-oxohexyl)-3,3-dimethyl-3H-indol-1-ium bromide]",75 µM,–
"CCC1(C)C(/C=C/C2=C(Cl)C(=C/C=C3/N(CCCCCC(=O)O)c4ccc(OC)cc4C3(C)CC)/CCC2)=[N+](CCCCCC(=O)NNC(=O)c2ccncc2)c2ccc(OC)cc21 (centres unmarked) [Compound G3, 2-(2-(3-(2-(5-Methoxyl-1-(5-carboxypentyl)-5-ethyl-3-methyl-indol-2-ylidene)ethylidene)-2-chloro-1-cyclohexen-1-yl)vinyl)-5-methoxyl-1-(6-(2-isonicotinoylhydrazinyl)-6-oxohexyl)-5-ethyl-3-methyl-3H-indol-1-ium bromide]",13.3 µM,–
"Cc1ccc2c(c1)C(C)(C)C(=CC=CC=CC=CC1=[N+](CCCCCC(=O)NNC(=O)c3ccncc3)c3ccc(C)cc3C1(C)C)N2CCCCCC(=O)O [Compound G4, 2-(7-(1-(5-carboxypentyl)-1,3-dihydro-3,3,5-trimethyl-2H-indol-2-ylidene)-1,3,5-heptatrien-1-yl)-1-(6-(2-isonicotinoylhydrazinyl)-6-oxohexyl)-3,3,5-trimethyl-3H-indol-1-ium bromide]",46.7 µM,–
"COc1ccc2c(c1)C(C)(C)C(=CC=CC=CC=CC1=[N+](CCCCCC(=O)NNC(=O)c3ccncc3)c3ccc(OC)cc3C1(C)C)N2CCCCCC(=O)O [Compound G5, 2-(7-(5-methoxyl-1-(5-carboxypentyl)-1,3-dihydro-3,3-dimethyl-2H-indol-2-ylidene)-1,3,5-heptatrien-1-yl)-5-methoxyl-1-(6-(2-isonicotinoylhydrazinyl)-6-oxohexyl)-3,3-dimethyl-3H-indol-1-ium bromide]",5.06 µM,–
"COc1ccc2c(c1)C(C)(C)\C(=C/C=C/C=C/C=C/C1=[N+](CCCCCC(=O)NNC(=O)c3ccncc3)c3ccc(C)cc3C1(C)C)N2CCCCS(=O)(=O)[O-] [Compound G7, 3H-Indolium,2-(7-(5-methoxy-1-(4-sulfonatobutyl)-3,3-dimethyl-2H-indolin-2-ylidene)-1,3,5-heptatrien-1-yl)-1-(6-(2-isonicotinoylhydrazinyl)-6-oxohexyl)-1,3-dihydro-3,3,5-trimethyl-, inner salt]",28.6 µM,–
"COc1ccc2c(c1)C(C)(C)C(/C=C/C=C/C=C/C=C1/N(CCCCS(=O)(=O)[O-])c3ccc(OC)cc3C1(C)C)=[N+]2CCCCCC(=O)NNC(=O)c1ccncc1 [Compound G8, 3H-Indolium,2-(7-(5-methoxy-1-(4-sulfonatobutyl)-3,3-dimethyl-2H-indolin-2-ylidene)-1,3,5-heptatrien-1-yl)-5-methoxy-1-(6-(2-isonicotinoylhydrazinyl)-6-oxohexyl)-1,3-dihydro-3,3-dimethyl-, inner salt]",102 µM,–
"COc1ccc2c(c1)C(C)(C)\C(=C/C=C/C=C/C=C/C1=[N+](CCCCCC(=O)NNC(=O)c3ccncc3)c3ccccc3C1(C)C)N2CCCCS(=O)(=O)[O-] [Compound G9, 3H-Indolium,2-(7-(5-methoxy-1-(4-sulfonatobutyl)-3,3-dimethyl-2H-indolin-2-ylidene)-1,3,5-heptatrien-1-yl)-1-(6-(2-isonicotinoylhydrazinyl)-6-oxohexyl)-1,3-dihydro-3,3-dimethyl-, inner salt]",90.5 µM,–
"CCCCN1/C(=C/C=C/C=C/C=C/C2=[N+](CCCC(=O)NNC(=O)c3ccncc3)c3ccc(C)cc3C2(C)C)C(C)(C)c2cc(OC)ccc21 [Compound G10, 2-(7-(5-Methoxy-1-butyl-3,3,5-trimethyl-2H-indolin-2-ylidene)-1,3,5-heptatrien-1-yl)-1-(6-(2-isonicotinoylhydrazinyl)-4-oxobutyl)-1,3-dihydro-3,3-dimethyl-3H-indolium bromide]",0.85 µM,"MAOA inhibitory activity (in words) ([1]; LNCaP cells): moderate MAOA inhibitory activities; IC50 [1, 2]: 221 nM"
CCCCN1/C(=C/C=C/C=C/C=C/C2=[N+](CCCCCC(=O)NNC(=O)c3ccncc3)c3ccc(C)cc3C2(C)C)C(C)(C)c2cc(OC)ccc21 [Compound G11],0.4 µM,"MAOA inhibitory activity (in words) ([1]; LNCaP cells): moderate MAOA inhibitory activities; IC50 [1, 2]: 469 nM"
CCCCN1/C(=C/C=C/C=C/C=C/C2=[N+](CCCCCC(=O)NNC(=O)c3ccncc3)c3ccc(Br)cc3C2(C)C)C(C)(C)c2cc(OC)ccc21 [Compound G12],1.55 µM,"MAOA inhibitory activity (in words) ([1]; LNCaP cells): moderate MAOA inhibitory activities; IC50 [1, 2]: 661 nM"
"CC1(C)C(/C=C/C=C/C=C/C=C2/N(CCCCCC(=O)NNC(=O)c3ccncc3)c3ccc4ccccc4c3C2(C)C)=[N+](CCCCS(=O)(=O)[O-])c2ccc3ccccc3c21 [Compound G13, 1H-Benz[e]indolium,2-(7-(3,3-dimethyl-1-(4-sulfonatobutyl)benz(e)indolin-2-ylidene)hepta-1,3,5-trien-1-yl)-1-(6-(2-isonicotinoylhydrazinyl)-6-oxohexyl)-1,3-dihydro-3,3-dimethyl-, inner salt]",10.5 µM,–
"COc1cccc2c1C(=O)c1c(O)c3c(c(O)c1C2=O)C[C@@](O)(C(=O)CO)C[C@@H]3O[C@H]1C[C@H](N)[C@H](O)[C@H](C)O1 [DOX, doxorubicin, reference compound]",0.21 µM,–
"NNC(=O)c1ccncc1 [INH, isoniazid, reference compound]",> 200 µM,IC50 [1]: > 1000 nM; cytotoxicity / antitumor activity against PC-3 cells (in words) (PC-3 cells): negligible cytotoxicity; also recorded: negligible in vitro antitumor activity
